Measurements: US4372964A, “Antiinflammatory 4,5-diaryl-1H-imidazole-2-methanols” (E. I. Du Pont de Nemours and Company, priority 1981, dated 1983)
Where two headings read alike, the source gives them in different places.

Experiments:
[1] = system: phenylquinone writhing in mice; test: Phenylquinone Writhing Test; format: in vivo, female white mice; conditions: Mus musculus, oral, observed from 30 minutes after dosing for 10 minutes
Description: Aqueous (0.10% phenyl-p-benzoquinone) phenylquinone was injected intraperitoneally at 24 minutes later using 0.20 ml per mouse.

[2] = system: adjuvant-induced arthritis in rats; test: Established Adjuvant-Induced Arthritis in Rats; format: in vivo, Lewis (Wistar) male rats; conditions: Rattus norvegicus; for ED50: oral once daily 7 days (days 14-20), decrease from control paw volume, day 21; for inhibition in vivo at 9 mg/kg: Table 3, dose 9 mg/kg
[3] = 168 h, Table 3, dose 25 mg/kg, oral once daily 7 days, read-out: Adjuvant Arthritis, percent reduction in paw volume at the indicated dose
[4] = 168 h, Table 4, dose 25 mg/kg, oral once daily 7 days, read-out: Adjuvant Arthritis, percent reduction in paw volume at the indicated dose
[5] = 168 h, Table 3, dose 50 mg/kg, oral once daily 7 days, read-out: Adjuvant Arthritis, percent reduction in paw volume at the indicated dose
[6] = 168 h, oral once daily 7 days, read-out: Adjuvant Arthritis, percent reduction in paw volume at the indicated dose

Structure (SMILES)	ED50 ([1]; Table 3, Formula I) [mg/kg]	ED50 ([2]; Table 3, Formula I) [mg/kg]	also measured
OC(c1nc(-c2ccc(F)cc2)c(-c2ccc(F)cc2)[nH]1)(C(F)(F)F)C(F)(F)F [Example 1, 4,5-Bis(4-fluorophenyl)-α,α-di(trifluoromethyl)-1H-imidazole-2-methanol]	> 108	8	–
COc1ccc(-c2nc(C(O)(C(F)(F)F)C(F)(F)F)[nH]c2-c2ccc(OC)cc2)cc1 [Example 2, 4,5-Bis(4-methoxyphenyl)-α,α-di(trifluoromethyl)-1H-imidazole-2-methanol]	2.7	5	–
CC(O)(c1nc(-c2ccc(F)cc2)c(-c2ccc(F)cc2)[nH]1)C(F)(F)F (stereo not drawn) [Example 3, 4,5-Bis(4-fluorophenyl)-α-methyl-α-trifluoromethyl-1H-imidazole-2-methanol]	39	1.8	–
COc1ccc(-c2nc(C(O)(C(F)(F)F)C(F)(F)F)n(C)c2-c2ccc(OC)cc2)cc1 [Example 4, 4,5-Bis(4-methoxyphenyl)-1-methyl-α,α-(trifluoromethyl)-1H-imidazole-2-methanol]	> 135	15	–
COc1ccc(-c2nc(C(OC(C)=O)(C(F)(F)F)C(F)(F)F)n(C)c2-c2ccc(OC)cc2)cc1 [Example 5, 4,5-Bis(4-methoxyphenyl)-1-methyl-α,α-di(trifluoromethyl)-1H-imidazole-2-methanol, Acetate]	> 108	–	inhibition in vivo at 25 mg/kg [2, 3]: 45%
CCOC(=O)OC(c1nc(-c2ccc(OC)cc2)c(-c2ccc(OC)cc2)n1C)(C(F)(F)F)C(F)(F)F [Example 6, 4,5-Bis(4-methoxyphenyl)-1-methyl-α,α-di(trifluoromethyl)-1H-imidazole-2-methanol, Ethylcarbonate]	> 108	–	inhibition in vivo at 45 mg/kg ([2]; 168 h, Table 3, dose 45 mg/kg, oral once daily 7 days, read-out: Adjuvant Arthritis, percent reduction in paw volume at the indicated dose): 17%
COc1ccc(-c2nc(C(OC)(C(F)(F)F)C(F)(F)F)[nH]c2-c2ccc(OC)cc2)cc1 [Example 7, 4,5-Bis(4-methoxyphenyl)-2-[1-methoxy-2,2,2-trifluoro-1-(trifluoromethyl)ethyl]-1H-imidazole]	32	4.4	–
O=C(c1nc(-c2ccc(F)cc2)c(-c2ccc(F)cc2)[nH]1)C(F)(F)F [Example 8, 1-[4,5-Bis(4-fluorophenyl)-1H-imidazol-2-yl]-2,2,2-trifluoro-1-ethanone]	–	–	ED50 ([1]; Table 4, Formula II): > 108 mg/kg; inhibition in vivo at 25 mg/kg [2, 4]: 49%
COc1ccc(-c2nc(C(=O)C(F)(F)F)[nH]c2-c2ccc(OC)cc2)cc1 [Example 9, 1-[4,5-Bis(4-methoxyphenyl)-1H-imidazol-2-yl]2,2,2-trifluoro-1-ethanone]	–	–	ED50 ([1]; Table 4, Formula II): > 108 mg/kg; ED50 ([2]; Table 4, Formula II): 25 mg/kg
COc1ccc(-c2nc(C(O)C(F)(F)F)[nH]c2-c2ccc(OC)cc2)cc1 (stereo not drawn) [Example 10, 4,5-Bis(4-methoxyphenyl)-α-(trifluoromethyl)-1H-imidazole-2-methanol]	1.9	45	–
CC(O)(c1nc(-c2ccc(F)cc2)c(-c2ccc(F)cc2)[nH]1)C(F)(F)C(F)(F)F (stereo not drawn) [Example 11, 4,5-Bis(4-Fluorophenyl)-α-methyl-α-/pentafluoroethyl-1H-imidazole-2-methanol]	> 108	1.4	–
COc1ccc(-c2nc(C(O)(C(F)(F)F)C(F)(F)Cl)[nH]c2-c2ccc(OC)cc2)cc1 (stereo not drawn) [Example 12]	42	6	–
COc1ccc(-c2nc(C(O)(C(F)(F)Cl)C(F)(F)Cl)[nH]c2-c2ccc(OC)cc2)cc1 [Example 13]	135	15	–
OC(c1nc(-c2ccc(F)cc2)c(-c2cccs2)[nH]1)(C(F)(F)F)C(F)(F)F [Example 14]	> 108	90	–
COc1ccc(-c2nc(C(O)(C(F)F)C(F)(F)F)[nH]c2-c2ccc(OC)cc2)cc1 (stereo not drawn) [Example 15, 4,5-bis(4-methoxyphenyl)-α-difluoromethyl-α-trifluoromethyl-1H-imidazole-2-methanol]	1.4	3	–
OC(c1nc(-c2ccc(F)cc2)c(-c2ccc(F)cc2)[nH]1)(C(F)F)C(F)(F)F (stereo not drawn) [Example 16, 4,5-bis(4-fluorophenyl)-α-difluoromethyl-α-trifluoromethyl-1H-imidazole-2-methanol]	> 108	4.8	–
OC(c1nc(-c2ccccc2)c(-c2ccc(Cl)c(Cl)c2)[nH]1)(C(F)(F)F)C(F)(F)F [Example 17]	–	–	inhibition in vivo at 50 mg/kg [2, 5]: 21%
COc1ccc(-c2nc(C(C)(O)C(F)(F)F)[nH]c2-c2ccc(OC)cc2)cc1 (stereo not drawn) [Example 18, 4,5-bis(4-methoxyphenyl)-α-methyl-α-trifluoromethyl-1H-imidazole-2-methanol]	2.2	5.4	–
COc1ccc(-c2nc(C(O)C(F)(F)F)n(C)c2-c2ccc(OC)cc2)cc1 (stereo not drawn) [Example 19]	> 108	–	inhibition in vivo at 27 mg/kg ([2]; 168 h, Table 3, dose 27 mg/kg, oral once daily 7 days, read-out: Adjuvant Arthritis, percent reduction in paw volume at the indicated dose): 0%
OC(c1nc(-c2ccccc2)c(-c2ccccc2)[nH]1)(C(F)(F)F)C(F)(F)F [Example 20]	57	27	–
CSc1ccc(-c2[nH]c(C(O)(C(F)(F)F)C(F)(F)F)nc2-c2ccc(F)cc2)cc1 [Example 21]	–	–	inhibition in vivo at 15 mg/kg ([2]; 168 h, Table 3, dose 15 mg/kg, oral once daily 7 days, read-out: Adjuvant Arthritis, percent reduction in paw volume at the indicated dose): 61%

Structure (SMILES)	ED50 ([1]; Table 3, Formula I) [mg/kg]	ED50 ([2]; Table 3, Formula I) [mg/kg]	also measured
OC(c1nc(-c2ccc(Cl)cc2)c(-c2ccc(Cl)cc2)[nH]1)(C(F)(F)F)C(F)(F)F [Example 22]	> 135	–	inhibition in vivo at 9 mg/kg [2, 6]: 37%
OC(c1nc(-c2ccc(F)cc2)c(-c2ccc(F)cc2)[nH]1)C(F)(F)C(F)(F)F (stereo not drawn) [Example 23]	24	6.8	–
CSc1ccc(-c2[nH]c(C(C)(O)C(F)(F)F)nc2-c2ccc(F)cc2)cc1 (stereo not drawn) [Example 24]	102	–	inhibition in vivo at 9 mg/kg [2, 6]: 51%
CC(=O)OC(c1nc(-c2ccc(F)cc2)c(-c2ccc(F)cc2)[nH]1)(C(F)(F)F)C(F)(F)F [Example 25]	> 108	13	–
Cn1c(C(C)(C)O)nc(-c2ccc(F)cc2)c1-c1ccc(F)cc1 [Example 26]	> 108	–	inhibition in vivo at 25 mg/kg [2, 3]: 47%
OC(c1nc(-c2ccc(F)cc2)c(-c2ccc(F)cc2)[nH]1)C(F)(F)F (stereo not drawn) [Example 27]	> 108	14	–
CC(C)(O)c1nc(-c2ccc(F)cc2)c(-c2ccc(F)cc2)[nH]1 [Example 28]	> 108	–	inhibition in vivo at 50 mg/kg [2, 5]: 48%
COc1ccc(-c2nc(C(C)(O)C(F)(F)C(F)(F)F)[nH]c2-c2ccc(OC)cc2)cc1 (stereo not drawn) [Example 29, 4,5-bis(4-methoxyphenyl)-α-methyl-α-pentafluoroethyl-1H-imidazole-2-methanol]	3.5	15	–
COc1ccc(-c2nc(C(C)(C)O)[nH]c2-c2ccc(OC)cc2)cc1 [Example 30, 4,5-bis(4-methoxyphenyl)-α,α-dimethyl-1H-imidazole-2-methanol]	4.6	6.4	–
CCC(O)(c1nc(-c2ccc(F)cc2)c(-c2ccc(F)cc2)[nH]1)C(F)(F)F (stereo not drawn) [Example 31, 4,5-bis(4-fluorophenyl)-α-ethyl-α-trifluoromethyl-1H-imidazole-2-methanol]	> 108	1.7	–
CCCC(O)(c1nc(-c2ccc(F)cc2)c(-c2ccc(F)cc2)[nH]1)C(F)(F)F (stereo not drawn) [Example 32]	> 108	8.6	–
COc1ccc(-c2nc(C(C)(O)C3CC3)[nH]c2-c2ccc(OC)cc2)cc1 (stereo not drawn) [Example 33]	5.6	–	inhibition in vivo at 9 mg/kg [2, 6]: 46%
CCC(C)(O)c1nc(-c2ccc(OC)cc2)c(-c2ccc(OC)cc2)[nH]1 (stereo not drawn) [Example 34]	5.2	–	inhibition in vivo at 50 mg/kg [2, 5]: 82%
COc1ccc(-c2nc(C(C)O)[nH]c2-c2ccc(OC)cc2)cc1 (stereo not drawn) [Example 35]	26	3.6	–
COc1ccc(-c2nc(C(=O)C(F)(F)F)n(C)c2-c2ccc(OC)cc2)cc1 [Example 36, 1-[4,5-bis(4-methoxyphenyl)-1-methyl-1H-imidazol-2-yl]-2,2,2-trifluoro-1-ethanone]	–	–	ED50 ([1]; Table 4, Formula II): > 108 mg/kg; inhibition in vivo at 25 mg/kg [2, 4]: 28%
CSc1ccc(-c2[nH]c(C(=O)C(F)(F)F)nc2-c2ccc(F)cc2)cc1 [Example 37]	–	–	ED50 ([1]; Table 4, Formula II): > 108 mg/kg; inhibition in vivo at 25 mg/kg [2, 4]: 24%
COc1ccc(-c2nc(C(=O)C(F)(F)C(F)(F)F)[nH]c2-c2ccc(OC)cc2)cc1 [Example 38, 1-[4,5-bis(4-methoxyphenyl)-1H-imidazol-2-yl]-2,2,3,3,3-pentafluoro-1-propanone]	–	–	ED50 ([1]; Table 4, Formula II): 2.3 mg/kg; inhibition in vivo at 25 mg/kg [2, 4]: 62%
O=C(c1nc(-c2ccc(F)cc2)c(-c2ccc(F)cc2)[nH]1)C(F)(F)C(F)(F)F [Example 39, 1-[4,5-bis(4-fluorophenyl)-1H-imidazol-2-yl]-2,2,3,3,3-pentafluoro-1-propanone]	–	–	ED50 ([2]; Table 4, Formula II): 3 mg/kg
COc1ccc(-c2nc(C(C)=O)[nH]c2-c2ccc(OC)cc2)cc1 [Example 40]	–	–	ED50 ([1]; Table 4, Formula II): > 135 mg/kg; inhibition in vivo at 50 mg/kg ([2]; 168 h, Table 4, dose 50 mg/kg, oral once daily 7 days, read-out: Adjuvant Arthritis, percent reduction in paw volume at the indicated dose): 56%
CC(=O)c1nc(-c2ccc(F)cc2)c(-c2ccc(F)cc2)[nH]1 [Example 41]	–	–	inhibition in vivo at 25 mg/kg [2, 4]: 0%
